Data on one molecule can be found in article PMC8794255, “Small molecule inhibitor of Igf2bp1 represses Kras and a pro-oncogenic phenotype in cancer cells” (RNA Biology, 2021).

Test [1] has as its target T1, G9a (Homo sapiens, UniProt Q96KQ7).
T1 sequence (Q96KQ7 1-1210): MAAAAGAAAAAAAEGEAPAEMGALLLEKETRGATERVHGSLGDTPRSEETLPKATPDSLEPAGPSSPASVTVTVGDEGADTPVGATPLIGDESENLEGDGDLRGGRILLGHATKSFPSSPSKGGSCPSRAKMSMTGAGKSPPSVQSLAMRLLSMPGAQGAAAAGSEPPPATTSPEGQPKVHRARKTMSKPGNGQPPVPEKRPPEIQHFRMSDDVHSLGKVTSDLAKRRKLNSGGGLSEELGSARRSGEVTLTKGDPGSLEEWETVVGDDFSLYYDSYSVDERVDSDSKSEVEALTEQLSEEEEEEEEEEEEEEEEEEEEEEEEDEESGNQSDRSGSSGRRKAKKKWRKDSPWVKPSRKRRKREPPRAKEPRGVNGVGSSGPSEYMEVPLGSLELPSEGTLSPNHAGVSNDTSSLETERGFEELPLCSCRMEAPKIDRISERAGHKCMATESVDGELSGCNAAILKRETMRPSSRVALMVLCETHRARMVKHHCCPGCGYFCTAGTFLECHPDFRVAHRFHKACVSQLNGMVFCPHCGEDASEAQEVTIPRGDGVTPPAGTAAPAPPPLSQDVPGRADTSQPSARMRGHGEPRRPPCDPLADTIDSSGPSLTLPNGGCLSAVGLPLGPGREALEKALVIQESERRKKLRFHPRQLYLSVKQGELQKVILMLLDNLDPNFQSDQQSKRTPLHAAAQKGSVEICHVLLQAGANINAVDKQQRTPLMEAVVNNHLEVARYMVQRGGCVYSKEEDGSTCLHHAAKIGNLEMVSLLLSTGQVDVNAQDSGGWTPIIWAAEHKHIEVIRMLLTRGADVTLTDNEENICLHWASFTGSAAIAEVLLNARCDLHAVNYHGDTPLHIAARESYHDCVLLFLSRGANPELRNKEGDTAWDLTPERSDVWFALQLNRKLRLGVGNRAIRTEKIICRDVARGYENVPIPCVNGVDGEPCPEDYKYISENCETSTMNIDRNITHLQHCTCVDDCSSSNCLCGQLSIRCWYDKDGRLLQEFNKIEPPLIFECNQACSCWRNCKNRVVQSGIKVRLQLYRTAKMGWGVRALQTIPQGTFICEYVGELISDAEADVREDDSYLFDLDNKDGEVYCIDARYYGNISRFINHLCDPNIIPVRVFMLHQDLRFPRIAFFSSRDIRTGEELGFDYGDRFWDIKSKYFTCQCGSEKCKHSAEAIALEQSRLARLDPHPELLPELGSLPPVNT
The test can be described thus: G9a FP assay (SAH-FITC probe). Type of test: biochemical. The method, then:
For the small-molecule screen, compounds were obtained from the collection maintained at the Grand Israel National Center for Personalized Medicine, consisting of molecules purchased from commercial vendors. Labelled RNA (10 nM) was incubated with recombinant Igf2bp1 protein (400 nM) in FAM-RNA buffer (10 mM Tris pH 8.0, 75 mM KCl, 0.5 mM EDTA, 1 mM DTT, 0.0188 U/μL RNAsin, 0.0005 μg/mL heparin, 0.0001 μg/μL tRNA, 0.01% Triton X-100, 3 mM MgCl2, 0.05% IGEPAL) at room temperature for 15 min. 7 μL of this reaction mix was aliquoted with GNF WDII (USA) into wells of 1536 well plates, with a final concentration of 20 μM compound or DMSO. The plates were spun down and read in a BMG Pherastar FS (Germany) plate reader, in FP mode with a 485/520/520 polarization filter, calibrated to 35 mP for free fluorescein with similar total intensity as experimental samples. […]

For test [2], the target named is T2, Igf2bp1 RRM12 di-domain (Homo sapiens, UniProt Q9NZI8).
T2 construct: Human Igf2bp1 di-domains RRM12 (M1-P188) and KH34 (P387-A574); 6xHis (N, cleaved yes); made in house; host or cells: E. coli BL21(DE3)
T2 sequence (Q9NZI8 1-188): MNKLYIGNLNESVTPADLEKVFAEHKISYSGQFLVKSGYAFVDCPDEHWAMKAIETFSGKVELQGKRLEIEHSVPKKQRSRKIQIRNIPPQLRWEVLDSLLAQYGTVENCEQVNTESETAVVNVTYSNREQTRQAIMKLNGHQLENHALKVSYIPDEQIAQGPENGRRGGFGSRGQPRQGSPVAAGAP
The test can be described thus: MST, Igf2bp1 RRM12 di-domain. The settings on record: read-out: KD of binding to RRM12. As to the method: Recombinant full-length Igf2bp1 protein was labelled with RED-tris-NTA dye using a Monolith NT His-Tag Labelling Kit (NanoTemper) while RRM12, KH12 and KH34 di-domain peptides were labelled using the Protein Labelling Kit RED NHS 2nd generation (NanoTemper). Labelled proteins were spun at 15,000 g for 5 min to eliminate aggregates. All samples were 2X labelled protein mix of Igf2bp1 (200 nM) in PBST and were combined (1:1) with serial dilutions of compound or Kras6 RNA in binding buffer (10mMTris pH = 7.5, 100 mM NaCl, 0.1 mM EDTA, 0.06% IPEGAL, 0.02 μg/μL tRNA, 2 mM DTT, 0.1 μg/μL heparin) in final volume of 20 μL, room temperature for 15 min. Samples were then loaded into standard capillaries (NanoTemper) and read in the Monolith NT.115 scanner (NanoTemper) using the red filter with reading conditions of 95% LED power and 40% MST power, 5 sec fluorescence before, 30 sec MST on, 5 sec fluorescence after and 25 sec delay between samples. Results were analysed using the MO Control software (NanoTemper) for curve fitting to KD.
The open reading frame of Igf2bps were cloned into the pET-21(d) plasmid (Novagen) between the Nco1 and Xho1 sites, as previously described. […]

In test [3] the target is T3, Igf2bp2 (Homo sapiens, UniProt Q9Y6M1).
T3 construct: made in house
T3 sequence (Q9Y6M1 whole entry, species assumed): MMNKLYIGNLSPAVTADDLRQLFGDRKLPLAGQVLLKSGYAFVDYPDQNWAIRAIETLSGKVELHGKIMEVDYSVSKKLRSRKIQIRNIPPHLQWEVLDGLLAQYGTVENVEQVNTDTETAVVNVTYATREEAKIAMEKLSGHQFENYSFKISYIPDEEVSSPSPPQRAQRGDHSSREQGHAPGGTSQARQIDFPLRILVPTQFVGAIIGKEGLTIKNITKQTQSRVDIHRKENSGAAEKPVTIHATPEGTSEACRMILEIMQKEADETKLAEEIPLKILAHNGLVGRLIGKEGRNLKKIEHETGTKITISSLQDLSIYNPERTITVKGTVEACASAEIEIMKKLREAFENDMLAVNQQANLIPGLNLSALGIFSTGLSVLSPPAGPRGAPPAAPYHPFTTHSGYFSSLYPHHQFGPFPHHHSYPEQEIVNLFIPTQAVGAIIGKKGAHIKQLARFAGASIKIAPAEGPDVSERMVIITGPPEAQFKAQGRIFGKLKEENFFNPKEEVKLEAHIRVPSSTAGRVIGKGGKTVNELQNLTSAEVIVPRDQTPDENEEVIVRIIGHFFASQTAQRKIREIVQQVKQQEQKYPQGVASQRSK
As to the kind of experiment: MST, Igf2bp2. Type of test: binding.

pKd: −log10 of the molar value.

A word on the pKd: it is the negative decadic logarithm of the Kd, by convention in mol/L. Regarding `O=C(c1ccc(Cn2cnnn2)cc1)N1CCCC(Nc2ccc3c(c2)OCO3)C1` (stereo not shown) [compound 7773], the “Effect on G9a catalysing methylation of a peptide” value in test [1] was “almost no effect”. The pKd in test [2] is 5.82; in test [3] (IGF2BP2 50nM, read-out: KD of binding to Igf2bp2), under 3.82. Moreover, in test [3] (even at concentrations that almost saturate binding to Igf2bp1), the “Binding to Igf2bp2” value was “did not significantly bind”.
